Data on eight substances can be found in patent US11753445B2, “Therapeutic peptides” (COHBAR, INC., priority 2016, dated 2023).

Data set [1] can be described thus: Stability in mouse plasma, peptides 100 uM (Example 14). Particulars: mouse plasma 37° C., peptide 100 uM; for remaining at 0.25 h, 100 uM / remaining at 0.5 h, 100 uM / remaining at 1 h, 100 uM / remaining at 2 h, 100 uM / remaining at 3 h, 100 uM: pooled mouse plasma; for remaining at 0.25 h, 100 uM: 15 min, read-out: % Remaining at Each Time Point: 15 min; for remaining at 0.5 h, 100 uM: 30 min, read-out: % Remaining at Each Time Point: 30 min; for remaining at 1 h, 100 uM: 60 min, read-out: % Remaining at Each Time Point: 60 min; for remaining at 2 h, 100 uM: 120 min, read-out: % Remaining at Each Time Point: 120 min; for remaining at 3 h, 100 uM: 180 min, read-out: % Remaining at Each Time Point: 180 min. It counts as in vitro ADME. The method, then: Peptides (100 uM) were incubated in pooled mouse plasma at 37° C. and samples were removed and immediately analyzed for the concentration of intact peptide by LC/MS/MS over the course of 3 hours. The percent of peptide remaining in plasma at each time point was calculated relative to the initial peak area (Table 12).

The subject of data set [2] is 3T3-L1 Adipocytes. As to the kind of experiment: Free fatty acid levels in cultured mouse 3T3-L1 adipocytes, isoproterenol stimulated (Example 2). Type of data set: cell-based. Particulars: test peptides 25 μM; isoproterenol 1 nM. In short, it runs like this: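 Release of free fatty acids, read at 540 nm, was stimulated with 1 nM isoproterenol for 3 h in mouse 3T3-L1 adipocytes (12–17 days of differentiation). Cells were pre-exposed to 25 μM peptide for 18–20 h plus 1 h, with peptide kept in during stimulation. Values are background-subtracted and normalised to isoproterenol alone.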

A short description of data set [3]: Stability in mouse plasma, peptides 10 uM (Example 15). As to conditions: mouse plasma 37° C., peptide 10 uM; for remaining at 0.25 h, 10 uM / remaining at 0.5 h, 10 uM / remaining at 1 h, 10 uM / remaining at 2 h, 10 uM / remaining at 3 h, 10 uM: pooled mouse plasma; for remaining at 0.25 h, 10 uM: 15 min, read-out: % Remaining at Each Time Point: 15 min; for remaining at 0.5 h, 10 uM: 30 min, read-out: % Remaining at Each Time Point: 30 min; for remaining at 1 h, 10 uM: 60 min, read-out: % Remaining at Each Time Point: 60 min; for remaining at 2 h, 10 uM: 120 min, read-out: % Remaining at Each Time Point: 120 min; for remaining at 3 h, 10 uM: 180 min, read-out: % Remaining at Each Time Point: 180 min. It counts as in vitro ADME. The method, then:
Peptides (10 uM) were incubated in pooled mouse plasma at 37° C. and samples were removed and immediately analyzed for the concentration of intact peptide by LC/MS/MS over the course of 3 hours. The percent of peptide remaining in plasma at each time point was calculated relative to the initial peak area (Table 13).

Regarding Ac-MRWQEMGYIFYPR-NH2 [compound 61], in data set [1], the “% Remaining at Each Time Point: 0 min” value is 100%; the share remaining (as a rule, what is left of the initial amount, in per cent) at 0.25 h, 100 uM turned out to be 69.1%; the share remaining at 0.5 h, 100 uM was 65.8%; the amount remaining at 1 h, 100 uM was 59.1%. Further, in data set [1], the share remaining at 2 h, 100 uM came out at 43.3% and the amount remaining at 3 h, 100 uM was determined as 29.1%. For the same substance, the “Free Fatty Acid Levels in 3T3-L1 Adipocytes Expressed as a Percent of Isoproterenol Control: Percent of Control Value” in data set [2] is recorded as 92.9%.
Consider H-ARWQEMGYIFYPRKLR-OH [compound 6], for which, in data set [1], the “% Remaining at Each Time Point: 0 min” value came out at 100%; the amount remaining at 0.25 h, 100 uM stood at 17.5%; the amount remaining at 0.5 h, 100 uM was 19.3%; the fraction remaining at 1 h, 100 uM turned out to be 21.4%. In data set [1], the share remaining at 2 h, 100 uM came to 10.9% and the fraction remaining at 3 h, 100 uM turned out to be 6.89%. The “Free Fatty Acid Levels in 3T3-L1 Adipocytes Expressed as a Percent of Isoproterenol Control: Percent of Control Value” in data set [2] was 58.6%.
H-MRWQEMGYIAYPRKLR-OH [compound 15]: in data set [1], the “% Remaining at Each Time Point: 0 min” value is 100%; the share remaining at 0.25 h, 100 uM turned out to be 19.5%; the fraction remaining at 0.5 h, 100 uM turned out to be 18.8%; the share remaining at 1 h, 100 uM was 21.8%. In addition, in data set [1], the fraction remaining at 2 h, 100 uM was 6.63% and the fraction remaining at 3 h, 100 uM came to 0%. In data set [2], the “Free Fatty Acid Levels in 3T3-L1 Adipocytes Expressed as a Percent of Isoproterenol Control: Percent of Control Value” came out at 67.9%.
As for H-RWQEMNYIAYPR-OH [compound 250], in data set [2], the “Free Fatty Acid Levels in 3T3-L1 Adipocytes Expressed as a Percent of Isoproterenol Control: Percent of Control Value” was determined as 83.0%. Also, in data set [3], the “% Remaining at Each Time Point: 0 min” value is 100%; the amount remaining at 0.25 h, 10 uM was determined as 63.2%; the share remaining at 0.5 h, 10 uM was determined as 54.1%; the share remaining at 1 h, 10 uM was 35.9%. Moreover, in data set [3], the fraction remaining at 2 h, 10 uM turned out to be 20% and the fraction remaining at 3 h, 10 uM turned out to be 11.7%.
Take H-RWQEMNYIFEPR-OH [compound 249]: the “Free Fatty Acid Levels in 3T3-L1 Adipocytes Expressed as a Percent of Isoproterenol Control: Percent of Control Value” in data set [2] worked out at 81.3%. Also, in data set [3], the “% Remaining at Each Time Point: 0 min” value stood at 100%; the fraction remaining at 0.25 h, 10 uM was found to be 46.7%; the share remaining at 0.5 h, 10 uM was found to be 40.5%; the amount remaining at 1 h, 10 uM was determined as 28.3%. Also, in data set [3], the fraction remaining at 2 h, 10 uM came out at 15.8% and the share remaining at 3 h, 10 uM was found to be 11.1%.
For H-WQEMGYIFYPRKL-OH [compound 269], the “Free Fatty Acid Levels in 3T3-L1 Adipocytes Expressed as a Percent of Isoproterenol Control: Percent of Control Value” in data set [2] worked out at 59.2%. Further, in data set [3], the “% Remaining at Each Time Point: 0 min” value is reported as 100%; the amount remaining at 0.25 h, 10 uM was 70%; the amount remaining at 0.5 h, 10 uM was 45.8%; the amount remaining at 1 h, 10 uM came out at 17.2%. For the same substance, in data set [3], the amount remaining at 2 h, 10 uM came to 2.64% and the amount remaining at 3 h, 10 uM was determined as 0.43%.
As to H-WQEMNYIFYP-OH [compound 285], the “Free Fatty Acid Levels in 3T3-L1 Adipocytes Expressed as a Percent of Isoproterenol Control: Percent of Control Value” in data set [2] was determined as 96.0%. In data set [3], the “% Remaining at Each Time Point: 0 min” value was determined as 100%; the share remaining at 0.25 h, 10 uM came out at 38.5%; the share remaining at 0.5 h, 10 uM worked out at 16.7%; the fraction remaining at 1 h, 10 uM turned out to be 9.17%. Moreover, in data set [3], the fraction remaining at 2 h, 10 uM was found to be 1.76% and the fraction remaining at 3 h, 10 uM was 0.87%.
As to H-WQEMNYIFYPR-OH [compound 284], the “Free Fatty Acid Levels in 3T3-L1 Adipocytes Expressed as a Percent of Isoproterenol Control: Percent of Control Value” in data set [2] was found to be 97.1%. For the same substance, in data set [3], the “% Remaining at Each Time Point: 0 min” value was determined as 100%; the share remaining at 0.25 h, 10 uM came to 75.3%; the fraction remaining at 0.5 h, 10 uM was 60.1%; the amount remaining at 1 h, 10 uM came out at 41.1%. In data set [3], the amount remaining at 2 h, 10 uM came out at 22.1% and the fraction remaining at 3 h, 10 uM was 13.7%.
